The structures appear in SMILES notation. Read-outs that look alike come from different tables or passages of the source.

Results on two molecules are retold here after patent publication US9957234B2, “Polymorphs of Ivacaftor, process for its preparation and pharmaceutical composition thereof” (Laurus Labs Limited, priority 2014, dated 2018).

Data set [1] in a line: Chemical and polymorphic stability study of Ivacaftor Form-L2 on storage (HPLC, XRD). Type of data set: physicochemical. The procedure: Ivacaftor Form L2 is packed in a transparent Low density polyethylene (LDPE) bag with a strip seal, which is again kept in a second transparent low density polyethylene bag with strip seal. The LDPE bag is kept in to a triple laminated sunlight barrier with heat seal followed by in a high density polyethylene container and well closed. The ivacaftor was analyzed using High Performance Liquid Chromatography (“HPLC”) with the conditions are tabulated below: [table]

Data set [2] in a line: Saturation solubility studies in various mediums. Type of data set: physicochemical. Here is the method:
Saturation solubility studies were conducted in various mediums for ivacaftor polymorph Form-L2 and Amorphous form and the data is given in Table III.

[3] abbreviates: stored at 25 ± 2° C./60 ± 5% RH, 1 month.
Where [4] appears, read: stored at 25 ± 2° C./60 ± 5% RH, 3 month.
[5] abbreviates: stored at 25 ± 2° C./60 ± 5% RH, Initial.
Where [6] appears, read: stored at 40 ± 2° C./75 ± 5% RH, 1 month.
Where [7] appears, read: stored at 40 ± 2° C./75 ± 5% RH, 3 month.
Setting [8] is: stored at 40 ± 2° C./75 ± 5% RH, Initial.

For the molecule `CC(C)(C)c1cc(C(C)(C)C)c(NC(=O)c2c[nH]c3ccccc3c2=O)cc1O` [Ivacaftor Form-L2, N-(2,4-di-tert-butyl-5-hydroxyphenyl)-1,4-dihydro-4-oxoquinoline-3-carboxamide], the “Polymorphic and chemical identity on storage” value in data set [1] (different storage condition (25° C./60% RH and 40° C./75% RH)) was “retained the same polymorphic and chemical identity at least up to three months”. The “Any major unknown impurity” value in data set [1] (setting [3]) turned out to be 0.02 % by HPLC; in data set [1] (setting [4]), 0.02 % by HPLC; in data set [1] (setting [5]) it was 0.02 % by HPLC; in data set [1] (setting [6]) it was 0.01 % by HPLC; in data set [1] (setting [7]) it was 0.01 % by HPLC; in data set [1] (setting [8]) it was 0.02 % by HPLC. Moreover, the Description entry in data set [1] (setting [3]), in data set [1] (setting [4]), in data set [1] (setting [5]), in data set [1] (setting [6]), in data set [1] (setting [7]) and in data set [1] (setting [8]) was “off-white” throughout. For the same molecule, the “Solid form by XRD” value in data set [1] (setting [3]), in data set [1] (setting [4]), in data set [1] (setting [5]), in data set [1] (setting [6]), in data set [1] (setting [7]) and in data set [1] (setting [8]) was “Complies” each time. The Total impurity in data set [1] (setting [3]) is given as 0.02 % by HPLC; in data set [1] (setting [4]), 0.02 % by HPLC; in data set [1] (setting [5]) it was 0.03 % by HPLC; in data set [1] (setting [6]), 0.03 % by HPLC; in data set [1] (setting [7]), 0.03 % by HPLC; in data set [1] (setting [8]) it was 0.03 % by HPLC. For the same molecule, the “Quinolone acid (Imp-3)” value in data set [1] (stored at 25 ± 2° C./60 ± 5% RH, Initial, LOD 0.006%) amounted to 0.01 % by HPLC. Also, in data set [1] (setting [8]), the “Impurity at RRT 0.59” value was determined as 0.01 % by HPLC. The solubility in data set [2] (0.001N HCl + 0.7% SLS, pH 3.12, aqueous with cosolvent or surfactant or cyclodextrin, thermodynamic from solid, 0.001N HCl + 0.7% SLS, pH 3.12, read-out: Solubility) was determined as 240 µg/mL; in data set [2] (0.01N HCl + 0.7% SLS, pH 2.12, aqueous with cosolvent or surfactant or cyclodextrin, thermodynamic from solid, 0.01N HCl + 0.7% SLS, pH 2.12, read-out: Solubility) it was 260 µg/mL; in data set [2] (50 mM Phosphate buffer + 0.7% SLS, pH 4.6, aqueous with cosolvent or surfactant or cyclodextrin, thermodynamic from solid, 50 mM Phosphate buffer + 0.7% SLS, pH 4.60, read-out: Solubility), 380 µg/mL; in data set [2] (0.1N HCl + 0.7% SLS, pH 1.1, aqueous with cosolvent or surfactant or cyclodextrin, thermodynamic from solid, 0.1N HCl + 0.7% SLS, pH 1.10, read-out: Solubility), 150 µg/mL; in data set [2] (pH 4.5 AB + 0.7% SLS, pH 4.52, aqueous with cosolvent or surfactant or cyclodextrin, thermodynamic from solid, pH 4.5 AB + 0.7% SLS, pH 4.52, read-out: Solubility), 310 µg/mL; in data set [2] (pH 5.5 PB + 0.7% SLS, pH 5.53, aqueous with cosolvent or surfactant or cyclodextrin, thermodynamic from solid, pH 5.5 PB + 0.7% SLS, pH 5.53, read-out: Solubility) it was 260 µg/mL. Besides, the solubility in data set [2] (pH 6.8 PB + 0.7% SLS, pH 6.8, aqueous with cosolvent or surfactant or cyclodextrin, thermodynamic from solid, pH 6.8 PB + 0.7% SLS, pH 6.80, read-out: Solubility) turned out to be 260 µg/mL. In data set [2] (various mediums, Table III), the “Solubility compared to amorphous form” value is reported as “more solubility when compared to amorphous form”.

As to `CC(C)(C)c1cc(C(C)(C)C)c(NC(=O)c2c[nH]c3ccccc3c2=O)cc1O` [Amorphous form, N-(2,4-di-tert-butyl-5-hydroxyphenyl)-1,4-dihydro-4-oxoquinoline-3-carboxamide, reference compound], the solubility turned out to be 230 µg/mL in data set [2] (0.001N HCl + 0.7% SLS, pH 3.12); 180 µg/mL in data set [2] (0.01N HCl + 0.7% SLS, pH 2.12); 190 µg/mL in data set [2] (50 mM Phosphate buffer + 0.7% SLS, pH 4.60); 120 µg/mL in data set [2] (0.1N HCl + 0.7% SLS, pH 1.10); 170 µg/mL in data set [2] (pH 4.5 AB + 0.7% SLS, pH 4.52); 180 µg/mL in data set [2] (pH 5.5 PB + 0.7% SLS, pH 5.53). Besides, the solubility in data set [2] (pH 6.8 PB + 0.7% SLS, pH 6.80) was 180 µg/mL.

The solubility is the dissolved amount per volume that the medium holds.
